The assay deals with T1, HIV-integrase (Human immunodeficiency virus type 1 group M subtype B, UniProt P12497).
T1 construct: Recombinant integrase (0.26 ng) was incubated with the beads
Put plainly: HIV-Integrase Inhibition Activity (SPA bead integration assay with P33 labeled target DNA). The class given is biochemical. The following applies: recombinant integrase, class symbols; read-out: in vitro activity. Put shortly:
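Biotinylated substrate DNA on streptavidin SPA beads loaded with recombinant integrase (90 min, 37° C), washed, then inhibitor plus 0.1 fmol P33-labeled target DNA added. Reaction stopped with 10 mM EDTA; integration measured as CPM by scintillation, giving IC50 ranks.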
`Cc1cc(CNC(=O)c2nc3n(c(=O)c2O)CC2CCC3(NC(=O)[C@@H]3CCCN3S(C)(=O)=O)CC2)ccc1F` [Example 263, 7,10-Ethanopyrimido[1,2-a]azepine-2-carboxamide, N-[(4-fluoro-3-methylphenyl)methyl]-4,6,7,8,9,10-hexahydro-3-hydroxy-10-[[[(2S)-1-(methylsulfonyl)-2-pyrrolidinyl]carbonyl]amino]-4-oxo-]: the IC50 is less than 10 nM.
Then `O=C(NCc1ccc(F)cc1)c1nc2n(c(=O)c1O)CC1CCC2(NC(=O)C2CCCN2S(=O)(=O)c2ccco2)CC1` (stereo not drawn) [Example 410], with less than 10 nM.
Then `CN(C)CC(=O)NC12CCC(CC1)n1c2nc(C(=O)NCc2ccc(F)cc2)c(O)c1=O` [Example 14, 6,9-Ethano-4H-pyrido[1,2-a]pyrimidine-2-carboxamide, 9-[[(dimethylamino)acetyl]amino]-N-[(4-fluorophenyl)methyl]-6,7,8,9-tetrahydro-3-hydroxy-4-oxo-], with 10 to 100 nM; and `CN(C)C(=O)C(=O)NC12CCC(CC1)Cn1c2nc(C(=O)NCc2ncc(F)cc2F)c(O)c1=O` [Example 123, N′-(2-(((3,5-Difluoro-2-pyridinyl)methyl)carbamoyl)-3-hydroxy-4-oxo-6,7,8,9-tetrahydro-7,10-ethanopyrimido[1,2-a]azepin-10(4H)-yl)-N,N-dimethylethanediamide], with 10 to 100 nM; and `Cc1cc(C(=O)NC23CCC(CC2)Cn2c3nc(C(=O)NCc3ccc(F)cc3)c(O)c2=O)nn1C(C)(C)C` [Example 240], with less than 10 nM.
For the compound `COCCN(C)C(=O)C(=O)NC12CCC(CC1)Cn1c2nc(C(=O)NCc2ccc(F)c(Cl)c2)c(O)c1=O` [Example 135, N′-(2-((3-Chloro-4-fluorobenzyl)carbamoyl)-3-hydroxy-4-oxo-6,7,8,9-tetrahydro-7,11-ethanopyrimido[1,2-a]azepin-10(4H)-yl)-N-(2-methoxyethyl)-N-methylethanediamide], the IC50 is less than 10 nM.
Under `CN(C)C(=O)C(=O)NC12CCC(Cn3c1nc(C(=O)NCc1ccc(F)cc1)c(O)c3=O)OC2` (stereo not drawn) [Example 222, N′-(2-((4-Fluorobenzyl)carbamoyl)-3-hydroxy-4-oxo-6,7,8,9-tetrahydro-7,10-(epoxymethano)pyrimido[1,2-a]azepin-10(4H)-yl)-N,N-dimethylethanediamide] stands less than 10 nM; under `CN(C)C(=O)C(=O)NC12CCC(CC1)Cn1c2nc(C(=O)NCc2cccc(-c3ccccc3)c2)c(O)c1=O` [Example 388], less than 10 nM.
Under `COC(=O)c1cn(C(C)(C)C(=O)NC23CCC(CC2)Cn2c3nc(C(=O)NCc3ccc(F)c(C)c3)c(O)c2=O)nn1` [Example 284, 1H-1,2,3-Triazole-4-carboxylic acid, 1-[2-[[2-[[[(4-fluoro-3-methylphenyl)methyl]amino]carbonyl]-6,7,8,9-tetrahydro-3-hydroxy-4-oxo-7,10-ethanopyrimido[1,2-a]azepin-10(4H)-yl]amino]-1,1-dimethyl-2-oxoethyl]-, methyl ester] stands less than 10 nM; under `Cc1nnc(C(=O)NC23CCC(CC2)n2c3nc(C(=O)NCc3ccc(F)cc3)c(O)c2=O)o1` [Example 17, 6,9-Ethano-4H-pyrido[1,2-a]pyrimidine-2-carboxamide, N-[(4-fluorophenyl)methyl]-6,7,8,9-tetrahydro-3-hydroxy-9-[[(5-methyl-1,3,4-oxadiazol-2-yl)carbonyl]amino]-4-oxo-], less than 10 nM.
Under `CN(C)C(=O)C(=O)NC12CCC(CC1)Cn1c2nc(C(=O)NCc2ccc(F)cc2C(F)(F)F)c(O)c1=O` [Example 121, N′-(2-((4-Fluoro-2-(trifluoromethyl)benzyl)carbamoyl)-3-hydroxy-4-oxo-6,7,8,9-tetrahydro-7,10-ethanopyrimido[1,2-a]azepin-10(4H)-yl)-N,N-dimethylethanediamide] stands less than 10 nM; under `CC(NC(=O)c1nc2n(c(=O)c1O)CC1CCC2(NC(=O)C(=O)N(C)C)CC1)c1ccccc1` (stereo not drawn) [Example 366], less than 10 nM.
With `CN(C)C12CCC(CC1)Cn1c2nc(C(=O)NCc2ccc(F)cc2)c(O)c1=O` [Example 150, 10-(Dimethylamino)-N-(4-fluorobenzyl)-3-hydroxy-4-oxo-4,6,7,8,9,10-hexahydro-7,10-ethanopyrimido[1,2-a]azepine-2-carboxamide], the IC50 was more than 100 nM.
In the case of `CN(C)C(=O)C(=O)NC12CCC(C)(CC1)Cn1c2nc(C(=O)NCc2ccc(F)cc2)c(O)c1=O` [Example 180, Ethanediamide, N′-[2-[[[(4-fluorophenyl)methyl]amino]carbonyl]-6,7,8,9-tetrahydro-3-hydroxy-7-methyl-4-oxo-7,10-ethanopyrimido[1,2-a]azepin-10(4H)-yl]-N,N-dimethyl-], the IC50 was less than 10 nM.
Under `C=C[C@@H]1C[C@]1(NC(C)=O)C(=O)NC12CCC(CC1)Cn1c2nc(C(=O)NCc2ccc(F)cc2)c(O)c1=O` [Example 277, 7,10-Ethanopyrimido[1,2-a]azepine-2-carboxamide, 10-[[[(1R,2S)-1-(acetylamino)-2-ethenylcyclopropyl]carbonyl]amino]-N-[(4-fluorophenyl)methyl]-4,6,7,8,9,10-hexahydro-3-hydroxy-4-oxo-] stands 10 to 100 nM; under `CN(C)C(=O)C(=O)NC12CCC(CC1)Cn1c2nc(C(=O)NCc2ccc(F)c(Cl)c2)c(O)c1=O` [Example 112, N′-(2-((3-Chloro-4-fluorobenzyl)carbamoyl)-3-hydroxy-4-oxo-6,7,8,9-tetrahydro-7,10-ethanopyrimido[1,2-a]azepin-10(4H)-yl)-N,N-dimethylethanediamide], less than 10 nM; under `CN1CCN(c2cccc(CNC(=O)c3nc4n(c(=O)c3O)CC3CCC4(NC(=O)C(=O)N(C)C)CC3)c2)CC1` [Example 127, N′-(3-Hydroxy-2-((3-(4-methyl-1-piperazinyl)benzyl)carbamoyl)-4-oxo-6,7,8,9-tetrahydro-7,10-ethanopyrimido[1,2-a]azepin-10(4H)-yl)-N,N-dimethylethanediamide], 10 to 100 nM.
Under `CN(C)S(=O)(=O)N1CCN(C(=O)C(=O)NC23CCC(CC2)Cn2c3nc(C(=O)NCc3ccc(F)cc3)c(O)c2=O)CC1` [Example 145, 10-(((4-(Dimethylsulfamoyl)-1-piperazinyl)(oxo)acetyl)amino)-N-(4-fluorobenzyl)-3-hydroxy-4-oxo-4,6,7,8,9,10-hexahydro-7,10-ethanopyrimido[1,2-a]azepine-2-carboxamide] stands less than 10 nM; under `CN(C)C(=O)C(=O)NC12CCC(CC1)Cn1c2nc(C(=O)NCc2ccc3c(c2)OCO3)c(O)c1=O` [Example 362], less than 10 nM; under `Cn1ccnc1C(=O)NC12CCC(CC1)Cn1c2nc(C(=O)NCc2ccc(F)cc2)c(O)c1=O` [Example 49, N-(4-Fluorobenzyl)-3-hydroxy-10-(((1-methyl-1H-imidazol-2-yl)carbonyl)amino)-4-oxo-4,6,7,8,9,10-hexahydro-7,11-ethanopyrimido[1,2-a]azepine-2-carboxamide], less than 10 nM.
In the case of `CN(C)C(=O)C(=O)NC12CCC(CC1)Cn1c2nc(C(=O)NCc2cccc(-n3cncn3)c2)c(O)c1=O` [Example 125, N′-(3-Hydroxy-4-oxo-2-((3-(1H-1,2,4-triazol-1-yl)benzyl)carbamoyl)-6,7,8,9-tetrahydro-7,10-ethanopyrimido[1,2-a]azepin-10(4H)-yl)-N,N-dimethylethanediamide], the IC50 is less than 10 nM.

(Values after patent US8129398B2 (priority 2008, dated 2012).)
